Measured values reported in US9884842B2, “Combretastatin analogs” (The Board of Trustees of the University of Arkansas, priority 2013, dated 2018).

Assays:
[1] = test system: OVCAR-3; test: cells; conditions: Homo sapiens; for GI50: OVCAR-3; for CC50: OVCAR-3, read-out: LC50
[2] = test system: CAKI-1; test: NCI growth inhibition and cytotoxicity screen, Renal Cancer panel; conditions: Homo sapiens; for GI50: CAKI-1; for CC50: CAKI-1, read-out: LC50
[3] = test system: UACC-62; test: NCI growth inhibition and cytotoxicity screen, Melanoma panel; conditions: Homo sapiens; for GI50: UACC-62; for CC50: UACC-62, read-out: LC50
[4] = test system: NCI-H460; test: NCI growth inhibition and cytotoxicity screen, Lung Cancer panel; conditions: Homo sapiens; for GI50: NCI-H460; for CC50: NCI-H460, read-out: LC50
[5] = test system: K-562; test: NCI growth inhibition and cytotoxicity screen, Leukemia panel; conditions: Homo sapiens; for GI50: K562; for CC50: K562, read-out: LC50
[6] = test system: M14; test: NCI growth inhibition and cytotoxicity screen, Melanoma panel; conditions: Homo sapiens; for GI50: M14; for CC50: M14, read-out: LC50
[7] = test system: UO-31; test: NCI growth inhibition and cytotoxicity screen, Renal Cancer panel; conditions: Homo sapiens; for GI50: UO-31; for CC50: UO-31, read-out: LC50
[8] = test system: MOLT-4; test: NCI growth inhibition and cytotoxicity screen, Leukemia panel; conditions: Homo sapiens; for GI50: MOLT-4; for CC50: MOLT-4, read-out: LC50
[9] = test system: HL-60(TB); test: cells; conditions: Homo sapiens; for GI50: HL-60; for CC50: HL-60, read-out: LC50
[10] = test system: OVCAR-5; test: NCI growth inhibition and cytotoxicity screen, Ovarian Cancer panel; conditions: Homo sapiens; for GI50: OVCAR-5; for CC50: OVCAR-5, read-out: LC50
[11] = test system: OVCAR-4; test: as above; conditions: Homo sapiens; for GI50: OVCAR-4; for CC50: OVCAR-4, read-out: LC50
[12] = test system: 786-0; test: NCI growth inhibition and cytotoxicity screen, Renal Cancer panel; conditions: Homo sapiens; for GI50: 786-0; for CC50: 786-0, read-out: LC50
[13] = test system: SK-OV-3; test: NCI growth inhibition and cytotoxicity screen, Ovarian Cancer panel; conditions: Homo sapiens; for GI50: SK-OV-3; for CC50: SK-OV-3, read-out: LC50
[14] = test system: MDA-MB-435; test: NCI growth inhibition and cytotoxicity screen, Melanoma panel; conditions: Homo sapiens; for GI50: MDA-MB-435; for CC50: MDA-MB-435, read-out: LC50
[15] = test system: SF-268; test: NCI growth inhibition and cytotoxicity screen, CNS Cancer panel; conditions: Homo sapiens; for GI50: SF-268; for CC50: SF-268, read-out: LC50
[16] = test system: SNB-75; test: as above; conditions: Homo sapiens; for GI50: SNB-75; for CC50: SNB-75, read-out: LC50
[17] = test system: SNB-19; test: as above; conditions: Homo sapiens; for GI50: SNB-19; for CC50: SNB-19, read-out: LC50
[18] = test system: NCI-H322M; test: NCI growth inhibition and cytotoxicity screen, Lung Cancer panel; conditions: Homo sapiens; for CC50: read-out: LC50
[19] = test system: T-47D; test: NCI growth inhibition and cytotoxicity screen, Breast Cancer panel; conditions: Homo sapiens, T47D; for CC50: read-out: LC50
[20] = test system: MCF7; test: as above; conditions: Homo sapiens; for GI50: MCF7; for CC50: MCF7, read-out: LC50
[21] = test system: NCI/ADR-RES; test: NCI growth inhibition and cytotoxicity screen, Ovarian Cancer panel; conditions: Homo sapiens; for CC50: read-out: LC50
[22] = test system: HCC-2998; test: NCI growth inhibition and cytotoxicity screen, Colon Cancer panel; conditions: Homo sapiens; for GI50: HCC 2998; for CC50: HCC 2998, read-out: LC50
[23] = test system: IGROV1; test: NCI growth inhibition and cytotoxicity screen, Ovarian Cancer panel; conditions: Homo sapiens; for GI50: IGROV-1; for CC50: IGROV-1, read-out: LC50
[24] = test system: HCT-15; test: NCI growth inhibition and cytotoxicity screen, Colon Cancer panel; conditions: Homo sapiens; for GI50: HCT-15; for CC50: HCT-15, read-out: LC50
[25] = test system: COLO 205; test: as above; conditions: Homo sapiens; for GI50: COLO 205; for CC50: COLO 205, read-out: LC50
[26] = test system: U251; test: NCI growth inhibition and cytotoxicity screen, CNS Cancer panel; conditions: Homo sapiens; for GI50: U-251; for CC50: U-251, read-out: LC50
[27] = test system: NCI-H23; test: NCI growth inhibition and cytotoxicity screen, Lung Cancer panel; conditions: Homo sapiens; for GI50: NCI-H23; for CC50: NCI-H23, read-out: LC50
[28] = test system: TK-10; test: NCI growth inhibition and cytotoxicity screen, Renal Cancer panel; conditions: Homo sapiens; for GI50: TK-10; for CC50: TK-10, read-out: LC50
[29] = test system: HS 578T; test: NCI growth inhibition and cytotoxicity screen, Breast Cancer panel; conditions: Homo sapiens; for CC50: read-out: LC50
[30] = test system: HOP-92; test: NCI growth inhibition and cytotoxicity screen, Lung Cancer panel; conditions: Homo sapiens; for GI50: HOP-92; for CC50: HOP-92, read-out: LC50
[31] = test system: MDA-MB-231/ATCC; test: NCI growth inhibition and cytotoxicity screen, Breast Cancer panel; conditions: Homo sapiens; for GI50: MDA-MB-231; for CC50: MDA-MB-231, read-out: LC50

Compound: COc1cc(OC)cc(/C(C#N)=C/c2c[nH]c3ccccc23)c1 [Formula (I)(b)]
- GI50 [1]: 31.2 nM
- CC50 [1]: > 100000 nM
- GI50 [2]: 35 nM
- CC50 [2]: > 100000 nM
- GI50 [3]: 49.3 nM
- CC50 [3]: > 100000 nM
- GI50 [4]: 39.2 nM
- CC50 [4]: > 100000 nM
- GI50 [5]: 43.2 nM
- CC50 [5]: > 100000 nM
- GI50 [6]: 42.4 nM
- CC50 [6]: > 100000 nM
- GI50 [7]: > 100 nM
- CC50 [7]: > 100000 nM
- GI50 [8]: 49.1 nM
- CC50 [8]: > 100000 nM
- GI50 [9]: 31.2 nM
- CC50 [9]: > 100000 nM
- GI50 [10]: > 100 nM
- CC50 [10]: > 100000 nM
- GI50 [11]: > 100 nM
- CC50 [11]: > 100000 nM
- GI50 [12]: 77.3 nM
- CC50 [12]: > 100000 nM
- GI50 [13]: > 100 nM
- CC50 [13]: > 100000 nM
- GI50 [14]: 20.3 nM
- CC50 [14]: > 100000 nM
- GI50 [15]: 78.3 nM
- CC50 [15]: > 100000 nM
- GI50 [16]: 34.8 nM
- CC50 [16]: > 100000 nM
- GI50 [17]: 62.1 nM
- CC50 [17]: > 100000 nM
- CC50 [18]: > 100000 nM
- GI50 [19]: > 100 nM
- CC50 [19]: > 100000 nM
- GI50 [20]: 41.4 nM
- CC50 [20]: > 100000 nM
- GI50 [21]: 33.3 nM
- CC50 [21]: > 100000 nM
- GI50 [22]: > 100 nM
- CC50 [22]: > 100000 nM
- GI50 [23]: > 100 nM
- CC50 [23]: > 100000 nM
- GI50 [24]: 53.5 nM
- CC50 [24]: > 100000 nM
- GI50 [25]: 47.7 nM
- CC50 [25]: 15200 nM
- GI50 [26]: 45.4 nM
- CC50 [26]: > 100000 nM
- GI50 [27]: > 100 nM
- CC50 [27]: > 100000 nM
- GI50 [28]: > 100 nM
- CC50 [28]: > 100000 nM
- GI50 [29]: > 100 nM
- CC50 [29]: > 100000 nM
- GI50 [30]: 68.4 nM
- CC50 [30]: > 100000 nM
- GI50 [31]: > 100 nM
- CC50 [31]: > 100000 nM

Compound: COc1cc(/C(C#N)=C/c2ccc3ccccc3n2)cc(OC)c1OC [PNR-4-90, (Z)-3-(quinolin-2-yl)-2-(3,4,5-trimethoxyphenyl)acrylonitrile]
- GI50 [1]: 163 nM
- CC50 [1]: 54900 nM
- GI50 [2]: 68 nM
- CC50 [2]: > 100000 nM
- GI50 [3]: 92 nM
- CC50 [3]: > 100000 nM
- GI50 [4]: 361 nM
- CC50 [4]: > 100000 nM
- GI50 [5]: 80 nM
- CC50 [5]: > 100000 nM
- GI50 [6]: 173 nM
- CC50 [6]: > 100000 nM
- GI50 [7]: 762 nM
- CC50 [7]: > 100000 nM
- GI50 [8]: 488 nM
- CC50 [8]: > 100000 nM
- GI50 [9]: 223 nM
- CC50 [9]: > 100000 nM
- GI50 [10]: 580 nM
- CC50 [10]: > 100000 nM
- GI50 [11]: 1430 nM
- CC50 [11]: > 100000 nM
- GI50 [12]: 445 nM
- CC50 [12]: > 100000 nM
- GI50 [13]: 524 nM
- CC50 [13]: > 100000 nM
- GI50 [14]: 33 nM
- CC50 [14]: 60000 nM
- GI50 [15]: 835 nM
- CC50 [15]: > 100000 nM
- GI50 [16]: 182 nM
- CC50 [16]: 98800 nM
- GI50 [17]: 578 nM
- CC50 [17]: > 100000 nM
- GI50 [18]: 718 nM
- CC50 [18]: > 100000 nM
- GI50 [19]: 4760 nM
- CC50 [19]: > 100000 nM
- GI50 [20]: 275 nM
- CC50 [20]: > 100000 nM
- GI50 [21]: 112 nM
- CC50 [21]: > 100000 nM
- GI50 [22]: 610 nM
- CC50 [22]: > 100000 nM
- GI50 [23]: 846 nM
- CC50 [23]: > 100000 nM
- GI50 [24]: 319 nM
- CC50 [24]: > 100000 nM
- GI50 [25]: 198 nM
- CC50 [25]: 32700 nM
- GI50 [26]: 355 nM
- CC50 [26]: 90500 nM
- GI50 [27]: 751 nM
- CC50 [27]: > 100000 nM
- GI50 [28]: 4690 nM
- CC50 [28]: > 100000 nM
- GI50 [29]: 689 nM
- CC50 [29]: > 100000 nM
- GI50 [30]: 736 nM
- CC50 [30]: > 100000 nM
- GI50 [31]: 943 nM
- CC50 [31]: > 100000 nM
